Our source for the IC50 and fold change values is PubChem BioAssay AID1419 (Emory University Molecular Libraries Screening Center, 2008).

The assay is described as follows: EBV protein-peptide binding inhibitors, dose response, biochemical, fluorescence polarization (AID 1419). The settings on record: cell-free protein-peptide binding, 2 h; for fold change: measured here: P channel fold over control, at 54 µM. (In general: Fluorescence polarisation rises when a labelled molecule tumbles more slowly, as on binding a larger partner.)

Activity calls are given as the source filed them. The rule behind the calls is not given here.

The term IC50 denotes the point on the concentration scale where inhibition reaches its midpoint. With `O=C(c1ccc(Cl)cc1)C1C2C(=O)N(c3ccccc3)C(=O)C2C2CCCN21` (centres undefined), the IC50 is under 0.42 µM and the fold change is 8.
For `COc1cc([N+](=O)[O-])ccc1-c1ccc(/C=N/NC(=O)c2ccccc2O)o1`, in that order: > 54 µM (inactive) and 0.5.
Regarding `CC(=O)Nc1ccc(NC2=Nc3ccccc3N3C2=Nc2c(c(C)nn2-c2ccccc2)C3c2ccccc2)cc1` (centres undefined), the IC50 was 4.1 µM and the fold change came to 3.9.
The corresponding values for `O=C1NC(=Nc2ccc(Cl)cc2)/C(=C/c2ccco2)S1` are 7.25 µM and 0.667.
The corresponding values for `Cc1cccn2c(=O)c3cc(C(=O)NCc4ccco4)c(=N)n(CCOCCO)c3nc12` are 3.61 µM and 3.76.
On to `CCN(CC)c1ccc2cc(S(=O)(=O)c3ccc(C)cc3)c(=O)oc2c1`, for which the IC50 is 6.25 µM and the fold change came out at 36.6.
For `COc1ccc(C2CC(c3ccccc3)n3nc(NC(=O)c4cccs4)nc3N2)cc1` (centres undefined), in that order: > 54 µM (inactive) and 0.943.
For `COC(=O)C1C=C2c3cccc4[nH]cc(c34)CC2N(C)C1` (centres undefined), in that order: 1.66 µM and 6.81.
For `COc1cc(/C=C2\SC(=O)N(c3cccc(Cl)c3)C2=O)cc([N+](=O)[O-])c1O`, in that order: 3.51 µM and 1.04.
With `COc1ncnc2c1N=C1CC(C)(C)CC(N)=C1S2`, the IC50 was 2.31 µM and the fold change stood at 6.34.
The corresponding values for `N#CC1(C#N)CC(C=O)=C(N)C1(C#N)CC(=O)C12CC3CC(CC(C3)C1)C2` (centres undefined) are > 54 µM (inactive) and 0.933.
The corresponding values for `Cc1cc2nc3c(=O)n(CCc4ccccc4)c(=O)[nH]c3nc2cc1N` are under 0.42 µM and 115.
The corresponding values for `O=C(CCN1C(=O)COc2ccccc21)NCc1ccco1` are > 54 µM (inactive) and 1.02.
For the compound `COC(=O)C1=COC(C)C2CN3CCc4c([nH]c5cc(OC)c(OC)cc45)C3CC12` (centres undefined), the IC50 was 8.76 µM and the fold change was 2.6.
In the case of `O=C(c1ccccc1)c1ccc2c(c1)OCCCO2`, the IC50 was > 54 µM (inactive) and the fold change was determined as 1.02.
As to `COc1ccccc1N1CCN(CC(O)COc2cccc3ccccc23)CC1` (centres undefined), the IC50 was > 54 µM (inactive) and the fold change worked out at 0.917.
`CCn1c(SC(C)C(=O)O)nc2sc3c(c2c1=O)CCC3` (centres undefined): the IC50 was > 54 µM (inactive) and the fold change turned out to be 1.12.
`Cc1nc2nc(-c3cccs3)cn2nc1C`: the IC50 was 1.87 µM and the fold change stood at 6.46.
For `Cc1ccc(S(=O)(=O)C(C#N)c2nc3ccccc3nc2N2CCCC2)cc1` (centres undefined), in that order: > 54 µM (inactive) and 1.67.
The corresponding values for `CC1=C/C(=C\c2ccc(Br)o2)C(=O)O1` are > 54 µM (inactive) and 0.98.
Regarding `N=C1/C(=C\c2ccc(-c3ccc(C(=O)O)cc3)o2)C(=O)N=C2SC=C(c3ccccc3)N12`, the IC50 was 3.3 µM and the fold change is 1.28.
For `Cc1ccc(/C=C/C(=O)OCc2nc(N)nc(Nc3ccccc3C)n2)o1`, in that order: > 54 µM (inactive) and 0.917.
For `Cn1nc([N+](=O)[O-])c(C(C#N)c2nc3ccccc3n2C)c(Cl)c1=O` (centres undefined), in that order: 2.39 µM and 2.35.
`Cc1cc([N+](=O)[O-])ccc1-c1ccc(/C=N/NC(=O)Cc2ccccc2)o1`: the IC50 was 6.04 µM and the fold change is 10.6.
Regarding `O=C(CSc1nc2ncccc2[nH]1)Nc1ccc2c(c1)OCO2`, the IC50 is > 54 µM (inactive) and the fold change turned out to be 1.02.
For `CCOC(=O)C1CCN(C(=O)Nc2ccc3nc(-c4ccco4)c(-c4ccco4)nc3c2)CC1`, in that order: 5.89 µM and 2.82.
For `CC1CN(c2nc3ccccc3nc2C(C#N)C(=O)NCc2ccc3c(c2)OCO3)CC(C)O1` (centres undefined), in that order: 5.37 µM and 4.35.
For `NC(=S)n1[nH]c(-c2ccc([N+](=O)[O-])cc2)c(N=Nc2cccc([N+](=O)[O-])c2)c1=O`, in that order: 3.71 µM and 1.14.
Turning to `COc1ccc(C2=CC(c3ccco3)n3ncnc3N2)cc1` (centres undefined), the IC50 is 1.31 µM and the fold change was determined as 12.4.
The corresponding values for `CN1/C(=C\C=C\C2=[N+](C)c3ccc4ccccc4c3C2(C)C)C(C)(C)c2ccccc21` are 3.78 µM and 4.43.
The corresponding values for `CCN(CC)c1ccc2cc(-c3nc(-c4ccc(OC)cc4)cs3)c(=O)oc2c1` are under 0.42 µM and 58.
For `O=C(N=Nc1c(O)[nH]c2ccc([N+](=O)[O-])cc12)c1cc(-c2ccccc2Cl)nc2ccccc12`, in that order: 4.56 µM and 1.03.
Take `COC(=O)CN1C(=O)N(c2ccccc2)C(N(O)C(=O)Nc2ccccc2)C1(C)C` (centres undefined): the IC50 is > 54 µM (inactive) and the fold change is 1.
As for `CC(C)OC(=O)CC(=O)c1sc2nc3c(cc2c1N)CN(C)CC3`, the IC50 was > 54 µM (inactive) and the fold change stood at 1.29.
With `Cn1c(=O)c(NCCc2ccccc2)c2c3c(cccc31)C(=O)c1ccccc1-2`, the IC50 was under 0.42 µM and the fold change came out at 226.
For `O=C1/C(=N\S(=O)(=O)c2cccs2)C([n+]2cccc(Cc3ccccc3)c2)=C([O-])c2ccccc21`, in that order: 7.66 µM and 13.9.
The corresponding values for `NS(=O)(=O)c1ccc(N/N=C/c2ccc(O)c(O)c2O)c([N+](=O)[O-])c1` are 3.19 µM and 1.05.
On to `O=C(Cn1c2ccccc2c(=O)c2ccccc21)N/N=C/c1ccc(N2CCCC2)c([N+](=O)[O-])c1`, for which the IC50 was > 54 µM (inactive) and the fold change was 0.76.
The corresponding values for `CCOC(=O)Cc1csc(SCC(=O)Nc2sc3c(c2C(N)=O)CCC3)n1` are > 54 µM (inactive) and 1.09.
`O=C1C2CC=C(Cl)CC2C(=O)N1CCCCCCN1C(=O)C2CC=C(Cl)CC2C1=O` (centres undefined): the IC50 was 6.72 µM and the fold change came to 1.89.
`Oc1ccccc1C=NC1=NN(c2cccc(C(F)(F)F)c2)CC1`: the half-maximal inhibitory concentration (IC50) is 3.11 µM and the fold change was determined as 19.9.
The corresponding values for `CCCNC(=O)COC(=O)c1[nH]c(C)c(C(=O)OCC)c1C` are > 54 µM (inactive) and 0.937.
Consider `CC(C)(C)NC(=O)c1sccc1C(=O)O`, for which the IC50 is > 54 µM (inactive) and the fold change worked out at 1.06.
The corresponding values for `O=C(COC(=O)c1ccc(NS(=O)(=O)c2cccs2)cc1)NCc1ccco1` are > 54 µM (inactive) and 1.01.
For `CCOC(=O)c1[nH]cnc1N=Nc1c(O)ccc2ccccc12`, in that order: 7.35 µM and 2.68.
The corresponding values for `COc1ccc(C(=O)c2sc3nc(C)cc(-c4cccs4)c3c2N)cc1` are 10.9 µM and 10.2.
Consider `COC(=O)c1ccc(C)c(NC(=O)CCSc2ccc(Cl)cc2)c1`, for which the IC50 is > 54 µM (inactive) and the fold change was found to be 1.15.
